Where two headings read alike, the source gives them in different places. Ends that are not written are not given here.
Key:
[1] = test system: human non-small cell lung cancer cells NCI-H1650; format: cell-based; details: 72 h
[2] = test system: cervical cancer Hela cells; assay: transwell migration inhibition, Hela; format: cell-based, human; details: 48 h
Experimental: (§1) Human prostate cancer, cervical cancer, osteosarcoma, ovarian cancer, melanoma, and hepatocellular carcinoma cells were inoculated into transwell chambers, with 100 μL per well; for an administration group, 100 μL of a micropeptide MIAC was added to each of the chambers at a different dose; and no medicament was added to a blank group. Then, 0.6 mL of a complete medium comprising 10% FBS was added to transwell lower chambers to stimulate cell migration, followed by incubation at 37° C. with 5% CO2 for 48 h. The culture medium in the wells was discarded, and the cells were fixed with methanol at room temperature for 30 min, stained with 0.1% crystal violet at room temperature for 10 min, and rinsed thoroughly with clear water; the unmigrated cells in the upper layer were wiped off with a cotton swab; and the migrated cells were observed under a microscope, and four visual fields were selected for photography and counting. The migration inhibition rate (MI) was calculated using the following formula: […]
(§2) where Ntest represents the number of migrated cells in the administration group, and Ncontrol represents the number of migrated cells in the blank control group.

[3] = test system: hepatocellular carcinoma Hep3B cells; assay: transwell migration inhibition, Hep3B; format: cell-based, human; details: 48 h
Experimental: as §1, §2

MERAGVPGFSPRRSSVEAKMQSTSCSVRKSSTVTAWPAVVLLLSWGQRRGG [MIAC, micropeptide inhibiting actin cytoskeleton]
OD ([1]; NCI-H1650, 50 μM): 1.127 ± 0.022 | OD ([1]; NCI-H1650, 100 μM): 0.955 ± 0.031 | OD ([1]; NCI-H1650, 200 μM): 0.779 ± 0.057 | Inhibition rate (%) ([2]; 6.25 μmol/L): 12.76% | Number of migrated cells ([2]; 6.25 μmol/L): 475.0 ± 53.3 | Inhibition rate (%) ([2]; 12.5 μmol/L): 39.23% | Number of migrated cells ([2]; 12.5 μmol/L): 296.8 ± 45.0 | Inhibition rate (%) ([2]; 25 μmol/L): 33.83% | Number of migrated cells ([2]; 25 μmol/L): 360.3 ± 119.4 | Inhibition rate (%) ([2]; 50 μmol/L): 61.30% | Number of migrated cells ([2]; 50 μmol/L): 210.5 ± 66.6 | Inhibition rate (%) ([3]; 12.5 μmol/L): 66.54% | Number of migrated cells ([3]; 12.5 μmol/L): 110.8 ± 29.3 | Inhibition rate (%) ([3]; 25 μmol/L): 65.33% | Number of migrated cells ([3]; 25 μmol/L): 114.8 ± 27.1 | Inhibition rate (%) ([3]; 50 μmol/L): 64.95% | Number of migrated cells ([3]; 50 μmol/L): 116.0 ± 26.1
